Results from patent publication US7176276B2, “Antimicrobial peptide and use thereof” (Toagosei Co., Ltd., priority 2003, dated 2007).
Ends that are not written are not given here.

Legend:
Format in all cases: cell-based
[1] = tested on: Escherichia coli IFO 12713; details: IFO 12713, 24 h
Method: (§1) Escherichia coli IFO 12713 • Escherichia coli 0157:H7 sakai • Klebsiella pneumoniae ATCC 4352 • Pseudomonas aeruginosa ATCC 10145
(§2) That is, each sample was diluted with a liquid bouillon medium (mfd. by DIFCO, product name “NUTRIENT BROTH Dehydrated”) to a peptide concentration of 500, 250, 125, 62.5, 31.3, 15.6, 7.8, 3.9, 1.9, 1.0 or 0.5 […] and dispensed in 150 μl portions into a 96 well microplate. On the other hand, a cell suspension (about 2×10^6 cells/ml) prepared by statically culturing each strain at 37° C. for 18 hours in LB Broth, Lennox (mfd. by DIFCO) was inoculated into each well of the 96 well microplate in an amount equivalent to that of the drug solution (the aforementioned peptide-containing bouillon medium). After the inoculation, the culturing was started in an incubator of 37° C., and the presence of bacterial growth was examined based on the turbidity after 24 hours. The minimum peptide concentration by which increase in the turbidity due to bacterial growth was not observed at the time of the measurement was defined as the MIC in this Example.

[2] = tested on: Klebsiella pneumoniae ATCC 4352; details: ATCC 4352, 24 h
Method: as §1, §2

[3] = tested on: Salmonella enteritidis IFO 3313; details: IFO 3313, 24 h
Method: as §2

[4] = tested on: Bacillus subtilis ATCC 6633; details: ATCC 6633, 24 h
Method: (§3) Gram-Positive Bacteria: • Staphylococcus aureus IFO 12732 • Staphylococcus aureus COL1 (MRSA) • Bacillus cereus IFO 3001 • Bacillus subtilis ATCC 6633 • Micrococcus luteus IFO 12708
as §2

[5] = tested on: Staphylococcus aureus COL1 (MRSA); details: COL1, 24 h
Method: as §3, §2

[6] = tested on: Staphylococcus aureus IFO 12732; details: IFO 12732, 24 h
Method: as §3, §2

[7] = tested on: Bacillus cereus IFO 3001; details: IFO 3001, 24 h
Method: as §3, §2

[8] = tested on: Micrococcus luteus IFO 12708; details: IFO 12708, 24 h
Method: as §3, §2

[9] = tested on: Pseudomonas aeruginosa ATCC 10145; details: ATCC 10145, 24 h
Method: as §1, §2

Substance	MIC [1]	MIC [2]	MIC [3]	MIC [4]	MIC [5]	MIC [6]	MIC [7]	MIC [8]	MIC [9]
RRLLRKWWWKRLL-NH2 (C-terminus assumed) [Sample 2, RRLLRKWWWKRLL]	7.8 µg/mL	3.9 µg/mL	3.9 µg/mL	1.95 µg/mL	15.6 µg/mL	1.95 µg/mL	62.5 µg/mL	3.9 µg/mL	–
RLLRKWWWKRLL-NH2 (C-terminus assumed) [Sample 1, RLLRKWWWKRLL]	15.6 µg/mL	7.8 µg/mL	3.9 µg/mL	1.95 µg/mL	–	1.95 µg/mL	62.5 µg/mL	3.9 µg/mL	15.6 µg/mL
RRRLLRKWWWKRLL-NH2 (C-terminus assumed) [Sample 3, RRRLLRKWWWKRLL]	15.6 µg/mL	3.9 µg/mL	3.9 µg/mL	1.95 µg/mL	–	1.95 µg/mL	62.5 µg/mL	7.8 µg/mL	15.6 µg/mL
LLRKWWWKRLL-NH2 (C-terminus assumed) [compound 1, LLRKWWWKRLL, reference compound]	–	–	15.6 µg/mL	0.98 µg/mL	–	1.95 µg/mL	62.5 µg/mL	7.8 µg/mL	–
